Data reported in US20260232639A1, “COMPOUNDS FOR USE IN THE TREATMENT OF SCHIZOPHRENIA” (ONTRACK THERAPEUTICS LIMITED, priority 2023, published 2026).

What was measured:
[1] = biological target: tropomyosin receptor kinase B (TrkB) (Homo sapiens, UniProt Q16620); conditions: known from the art; cited from earlier work
BDNF = BDNF ELISA in brain tissue of scPCP-treated rats; assay type: in vivo, rat; conditions: Example 4; 21-day treatment; two different protein concentrations
Protocol: (§1) Remaining ½ brains (remaining hemispheres) were processed for protein analysis of BDNF using ELISA (quantified in the prefrontal cortex and the dorsal hippocampus) and synaptic markers using Simple Western (quantified in the prefrontal cortex).
(§2) Prefrontal Cortex and dorsal hippocampus were dissected from the frozen brain and homogenised on ice in a 10-fold volume (mg:μL) of buffer (10 mM Trizma base, Sigma-Aldrich; […] sucrose, Sigma-Aldrich; 2 mM EDTA, Sigma-Aldrich; and protease- and phosphatase-inhibitor cocktails, Sigma-Aldrich) buffered to a pH of 7.4. Phenylmethylsulfonyl fluoride (PMSF) and sodium orthovanadate were added to the solution at a 1% (v/v) concentration. Samples were centrifuged at 800×g for 15 minutes at 4° C. The supernatant was collected and centrifuged at 11,700×g for 20 minutes, and the resulting supernatant was collected and stored at −20° C. until analysis.
Protein concentrations of each sample were calculated using a Bradford Assay. Samples were diluted into protein assay dye reagent concentrate (BioRad) and compared to bovine serum albumin (Sigma) of known concentration (1.0-0.1 mg/ml protein). […]
(§3) BDNF and synaptic markers were analysed using a one-way ANOVA followed by planned post hoc analysis to investigate differences between treatment groups for Prefrontal Cortex (BDNF & Synaptic markers) and Dorsal Hippocampus (BDNF) respectively.

parvalbumin interneurons = assay: Parvalbumin immunohistochemistry in brains of scPCP-treated rats; assay type: in vivo, rat; conditions: 21-day treatment, 30 mg/kg p.o.
Protocol: Animals were culled by increasing concentration of carbon dioxide and death was confirmed by cervical dislocation. Brains were removed, frozen on dry ice and stored at −80° C. until analysis.
½ brains (one hemisphere) were randomly selected and processed for parvalbumin immunohistochemistry (IHC), quantified in the prefrontal cortex and dorsal hippocampus.
Sections (30 μm thickness) were washed in 1× PBS three times for five minutes each. Sections underwent heat-induced antigen retrieval in sodium citrate buffer (0.294% (w/v) sodium citrate, 0.07% (v/v) tween-20, 500 ml distilled water, pH adjusted to 6.0) for 30 minutes at 80° C. Unless otherwise stated, samples were washed twice in 1× PBS between each step.
Parvalbumin (PV) sections were processed for light microscopy. […]
Images were acquired on a 3D-Histech Pannoramic-250 microscope slide-scanner using a 20×/0.80 Plan Apochromat objective (Zeiss). […] For PV images, the region of interest was delineated, and the number of cell detections were manually counted within the CaseViewer software. Density was calculated by dividing the number of positive cell detections by the area of the region of interest.
Parvalbumin density in the Prefrontal Cortex and Dorsal Hippocampus were analysed using a repeated measure two-way ANOVA with region and treatment as fixed factors. […]

scPCP treated rats [2] = assay: Novel object recognition (NOR) test in sub-chronic PCP treated rats; conditions: for Time spent exploring the novel versus familiar object in the retention trial (FIG. 6): 20-day treatment with compound of Formula I 10 & 30 mg/kg p.o.; for Time spent exploring the novel versus familiar object in the retention trial (FIG. 2): compound of Formula I 10 & 30 mg/kg p.o.
scPCP treated rats [3] = assay: Attentional set-shifting task (ASST) in sub-chronic PCP treated rats; conditions: for Number of trials to criterion in the EDS phase (FIG. 20): 21-day treatment, compared to scPCP group
SNAP25 = assay: Simple Western of synaptic marker SNAP25 in prefrontal cortex of scPCP-treated rats; assay type: in vivo, rat; conditions: 21-day treatment; for SNAP25 levels in the total prefrontal cortex (FIG. 18): Example 3, vs scPCP; for scPCP-induced loss of SNAP25, relative protein level in prefrontal cortex (FIG. 21): Example 4
Protocol: as §1, §2
Protein concentrations of each sample were calculated using a Bradford Assay. Samples were diluted into protein assay dye reagent concentrate (BioRad) and compared to bovine serum albumin (Sigma) of known concentration (1.0-0.1 mg/ml protein). A standard curve was created using a simple linear regression. Standards and samples were run in triplicate. An outlying value from a triplicate was removed if the CV value was greater than 10%.
A WES plate was prepared following the provided instructions (SM-W004, ProteinSimple). Diluted samples were mixed with dithiothreitol and fluorescent master mix in an 8:1:1 ratio. Samples were denatured at 95° C. for five minutes. The samples, antibody diluent, primary antibody, secondary antibody and luminol-peroxide mix were loaded into appropriate wells. A biotinylated ladder, antibody diluent, streptavidin-HRP and luminol peroxide were also loaded. After brief centrifugation of the plate, wash buffer was added. The plate was then placed into the WES machine, whereby the load separation matrix is aspirated, and stacking matrix drawn up into each capillary. […] Finally, the chemiluminescent substrate was added into the capillaries, and the camera detected the levels of chemiluminescence at 9 different timepoints (1-512 seconds). The software then calculated the high dynamic range (HDR) of the peaks, which is calculated from the individual exposures and provides the largest dynamic range of the signal with the lowest background. The HDR peak is then used to calculate the area under the curve, which is analogous to the quantity of protein in the sample. […]
as §3

scPCP treated rats [4] = assay: Social interaction test in sub-chronic PCP treated rats; conditions: for Object exploration duration, inanimate object (FIG. 10): 21-day test article 10 & 30 mg/kg p.o.
PSD95 = assay: Simple Western of synaptic marker PSD95 in prefrontal cortex of scPCP-treated rats; assay type: in vivo, rat; conditions: Example 4, 21-day treatment
Protocol: as §1
as §2, with “The supernatant was collected and centrifuged at 11,700×g for 20 minutes, and the resulting supernatant was collected and stored at −20° C. until analysis.” left out
Protein concentrations of each sample were calculated using a Bradford Assay. […]
A WES plate was prepared following the provided instructions (SM-W004, ProteinSimple). […] Finally, the chemiluminescent substrate was added into the capillaries, and the camera detected the levels of chemiluminescence at 9 different timepoints (1-512 seconds). The software then calculated the high dynamic range (HDR) of the peaks, which is calculated from the individual exposures and provides the largest dynamic range of the signal with the lowest background. The HDR peak is then used to calculate the area under the curve, which is analogous to the quantity of protein in the sample. […]

scPCP treated rats [5] = conditions: 7-day treatment; female rats; McLean et al., 2008, 2012; cited from earlier work
[6] = acute risperidone 0.1 mg/kg i.p., scPCP rats
[7] = acute treatment, risperidone 0.1 mg/kg i.p., scPCP rats
[8] = acute risperidone 0.1 mg/kg i.p.
[9] = 20-day phase, scPCP rats, acute risperidone 0.1 mg/kg i.p.
[10] = acute phase, scPCP rats, risperidone 0.1 mg/kg i.p., 60 min prior to testing

Sequence of tropomyosin receptor kinase B (TrkB) (Q16620 32-822, species assumed): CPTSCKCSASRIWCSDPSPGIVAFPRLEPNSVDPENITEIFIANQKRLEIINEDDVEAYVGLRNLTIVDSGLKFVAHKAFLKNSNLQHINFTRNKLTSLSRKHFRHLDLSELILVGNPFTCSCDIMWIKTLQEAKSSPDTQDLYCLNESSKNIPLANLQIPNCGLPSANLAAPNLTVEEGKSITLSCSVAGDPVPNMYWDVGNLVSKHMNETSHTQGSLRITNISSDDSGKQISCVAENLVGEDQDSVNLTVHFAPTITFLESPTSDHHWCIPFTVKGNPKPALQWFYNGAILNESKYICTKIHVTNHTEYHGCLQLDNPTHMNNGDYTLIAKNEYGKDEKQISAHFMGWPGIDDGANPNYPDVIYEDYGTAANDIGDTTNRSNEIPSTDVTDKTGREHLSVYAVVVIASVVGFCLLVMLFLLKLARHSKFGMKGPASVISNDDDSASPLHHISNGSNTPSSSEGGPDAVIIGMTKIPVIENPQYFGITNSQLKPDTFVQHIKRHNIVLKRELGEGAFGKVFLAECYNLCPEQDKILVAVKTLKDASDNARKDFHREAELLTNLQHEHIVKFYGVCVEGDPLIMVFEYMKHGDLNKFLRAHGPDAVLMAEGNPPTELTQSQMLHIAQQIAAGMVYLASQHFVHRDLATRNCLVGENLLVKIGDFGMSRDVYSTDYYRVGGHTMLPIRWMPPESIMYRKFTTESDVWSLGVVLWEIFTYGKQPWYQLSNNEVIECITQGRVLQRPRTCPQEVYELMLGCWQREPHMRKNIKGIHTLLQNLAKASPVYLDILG

O=c1cc(-c2ccccc2)oc2c(O)c(O)ccc12 [tropoflavin, 7,8-dihydroxyflavone]
Agonism of TrkB [1]: potent and selective agonist

N#Cc1ccc(-c2cc(=O)c3ccc4[nH]c(C(F)(F)F)nc4c3o2)cc1 [Compound of Formula I, 4-(6-oxo-2-(trifluoromethyl)-3,6-dihydrochromeno[7,8-d]imidazol-8-yl)benzonitrile]
Concentration of BDNF in the dorsal hippocampus (FIG. 22) (BDNF): increase the level of BDNF back to that of vehicle treated animals | PV cell density in the total prefrontal cortex (FIG. 13) (parvalbumin interneurons; compared to scPCP group): significantly increased | PV cell density in subregions of the prefrontal cortex (Cg1, PrL, IL) (FIG. 12) (parvalbumin interneurons; vs scPCP): significantly increased | Time spent exploring the novel versus familiar object in the retention trial (FIG. 6) (scPCP treated rats [2]; [6]): dose dependent statistically significant effect | Discrimination index (DI) (FIG. 7) (scPCP treated rats [2]; 20-day treatment, 30 mg/kg p.o., compared to scPCP animals without treatment): statistically significant increase | Time spent exploring the novel versus familiar object in the retention trial (FIG. 2) (scPCP treated rats [2]; [7]): not shown to have a difference | Number of trials to criterion in the EDS phase (FIG. 20) (scPCP treated rats [3]; 3 mg/kg p.o.): No significant reduction | Number of trials to criterion in the EDS phase (FIG. 20) (scPCP treated rats [3]; 10 mg/kg p.o.): near significant reductions | Number of trials to criterion in the EDS phase (FIG. 20) (scPCP treated rats [3]; 30 mg/kg p.o.): significant reductions | SNAP25 levels in the total prefrontal cortex (FIG. 18) (SNAP25; 10 mg/kg p.o.): increased significantly | SNAP25 levels in the total prefrontal cortex (FIG. 18) (SNAP25; 30 mg/kg p.o.): not | scPCP-induced loss of SNAP25, relative protein level in prefrontal cortex (FIG. 21) (SNAP25; 30 mg/kg p.o.): not | scPCP-induced loss of SNAP25, relative protein level in prefrontal cortex (FIG. 21) (SNAP25; 3 and 10 mg/kg p.o.): significantly alleviated | Object exploration duration, inanimate object (FIG. 10) (scPCP treated rats [4]; [8]): no differences | Sniffing duration, social impairment deficit (FIG. 9) (scPCP treated rats [4]; 21-day treatment, 10 & 30 mg/kg p.o.): able to rescue the social impairment deficit in the scPCP treated rats in a dose dependent manner | scPCP-induced loss of PSD95, relative protein level in prefrontal cortex (FIG. 21) (PSD95; 30 mg/kg p.o.): not | scPCP-induced loss of PSD95, relative protein level in prefrontal cortex (FIG. 21) (PSD95; 3 and 10 mg/kg p.o.): significantly alleviated

O=C(CCCN1CCC(O)(c2ccc(Cl)cc2)CC1)c1ccc(F)cc1 [haloperidol]
Reversal of scPCP deficit in the extra-dimensional shift (scPCP treated rats [5]): not

Cc1nc2n(c(=O)c1CCN1CCC(c3noc4cc(F)ccc34)CC1)CCCC2 [Risperidone, risperidone]
Reversal of scPCP deficit in the extra-dimensional shift (scPCP treated rats [5]): reversed | Acquisition total exploration time (scPCP treated rats [2]; [9]): 25.5 ± 3.4 s | Retention total exploration time (scPCP treated rats [2]; [9]): 17.8 ± 1.1 s | Time spent exploring the novel versus familiar object in the retention trial (FIG. 6) (scPCP treated rats [2]; [6]): statistically significant increase | Acquisition total exploration time (scPCP treated rats [2]; [10]): 22.81 ± 4.03 s | Retention total exploration time (scPCP treated rats [2]; [10]): 23.10 ± 2.92 s | Time spent exploring the novel versus familiar object in the retention trial (FIG. 2) (scPCP treated rats [2]; [7]): statistically significant increase | Discrimination index (DI) (FIG. 3) (scPCP treated rats [2]; [7]): higher discrimination index (DI) than those without treatment | scPCP-induced deficit in the EDS phase (FIG. 20) (scPCP treated rats [3]; [8]): significantly (P<0.01) reversed | Object exploration duration, inanimate object (FIG. 10) (scPCP treated rats [4]; [8]): no differences | Sniffing duration (FIG. 9) (scPCP treated rats [4]; acute risperidone 0.1 mg/kg i.p., 60 min prior to testing): increase the amount of time the rat spent sniffing to a similar level as that observed by the higher dose of test article
